# Experimental data reported in the Kinase Knowledgebase extract (Sharma et al. 2016).
# Tests used:
# CDK2 [1] = target: CDK2 (UniProt P24941); assay: Enzyme Assay
# CDK2 [2] = target: CDK2 (UniProt P24941); assay: Enzyme Assay; details: for inhibition: concentration not given here
# MAPK14 (human) = MAPK14 (human) (UniProt Q16539); assay: Inhibition of MAPK14 Kinase Activity; details: for inhibition: concentration not given here
# ROCK2 (rat) = ROCK2 (rat) (UniProt Q62868); assay: Inhibition of ROCK2 Kinase Activity; details: concentration not given here
# ROCK2 (rat), sequence (Q62868 whole entry, looked up): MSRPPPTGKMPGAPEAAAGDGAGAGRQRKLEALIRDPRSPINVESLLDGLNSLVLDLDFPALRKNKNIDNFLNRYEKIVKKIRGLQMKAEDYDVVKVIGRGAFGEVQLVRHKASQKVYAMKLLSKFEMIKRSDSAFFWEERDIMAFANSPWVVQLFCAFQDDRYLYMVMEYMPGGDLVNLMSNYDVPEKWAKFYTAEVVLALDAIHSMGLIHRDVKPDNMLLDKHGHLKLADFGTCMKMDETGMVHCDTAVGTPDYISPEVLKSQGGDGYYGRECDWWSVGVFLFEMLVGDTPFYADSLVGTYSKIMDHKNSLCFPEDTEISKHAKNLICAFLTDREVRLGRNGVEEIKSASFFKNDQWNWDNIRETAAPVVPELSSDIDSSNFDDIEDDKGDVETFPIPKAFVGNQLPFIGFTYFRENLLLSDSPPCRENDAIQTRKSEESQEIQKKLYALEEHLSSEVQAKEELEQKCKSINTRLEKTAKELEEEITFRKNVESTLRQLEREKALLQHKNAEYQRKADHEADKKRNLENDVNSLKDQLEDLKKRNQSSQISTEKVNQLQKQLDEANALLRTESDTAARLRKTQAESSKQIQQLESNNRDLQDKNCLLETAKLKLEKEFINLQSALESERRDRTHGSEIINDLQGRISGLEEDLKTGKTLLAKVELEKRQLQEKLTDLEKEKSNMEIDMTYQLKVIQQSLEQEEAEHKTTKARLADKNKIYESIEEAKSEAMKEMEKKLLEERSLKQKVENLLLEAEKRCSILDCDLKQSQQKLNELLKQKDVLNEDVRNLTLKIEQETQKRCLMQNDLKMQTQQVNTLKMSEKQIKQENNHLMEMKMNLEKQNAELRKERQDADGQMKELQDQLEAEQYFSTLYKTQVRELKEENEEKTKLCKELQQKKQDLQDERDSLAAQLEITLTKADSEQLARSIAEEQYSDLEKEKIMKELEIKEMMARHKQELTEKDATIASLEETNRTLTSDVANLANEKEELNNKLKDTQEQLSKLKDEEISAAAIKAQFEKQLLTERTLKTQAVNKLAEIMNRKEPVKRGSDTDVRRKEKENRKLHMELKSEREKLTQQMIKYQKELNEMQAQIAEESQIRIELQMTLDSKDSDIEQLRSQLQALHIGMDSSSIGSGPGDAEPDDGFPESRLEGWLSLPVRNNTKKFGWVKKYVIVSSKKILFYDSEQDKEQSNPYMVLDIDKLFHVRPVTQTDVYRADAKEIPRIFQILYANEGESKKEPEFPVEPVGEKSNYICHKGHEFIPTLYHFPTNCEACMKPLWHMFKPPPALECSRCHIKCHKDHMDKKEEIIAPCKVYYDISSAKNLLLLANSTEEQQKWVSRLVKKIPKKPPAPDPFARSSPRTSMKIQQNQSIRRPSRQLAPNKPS
# MAPK14 (human), sequence (Q16539 whole entry, looked up): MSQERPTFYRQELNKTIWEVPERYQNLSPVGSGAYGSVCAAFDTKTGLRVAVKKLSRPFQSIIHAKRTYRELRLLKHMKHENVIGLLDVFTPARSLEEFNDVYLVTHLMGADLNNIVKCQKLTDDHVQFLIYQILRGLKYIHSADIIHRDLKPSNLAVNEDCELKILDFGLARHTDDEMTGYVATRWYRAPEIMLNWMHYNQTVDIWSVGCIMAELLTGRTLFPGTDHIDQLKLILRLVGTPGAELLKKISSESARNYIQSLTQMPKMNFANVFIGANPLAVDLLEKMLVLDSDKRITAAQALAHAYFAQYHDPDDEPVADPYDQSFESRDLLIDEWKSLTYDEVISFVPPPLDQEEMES
Structure (SMILES),IC50 (CDK2 [1]) [µM],further results
CNc1nc(C)c(-c2ccnc(Nc3ccc(S(C)(=O)=O)cc3)n2)s1,0.002,–
Cc1nc(C)c(-c2ccnc(Nc3cccc(N4CCOCC4)c3)n2)s1,0.32,–
CNc1nc(C)c(-c2ccnc(Nc3ccc(S(=O)(=O)NCCO)cc3)n2)s1,0.006,–
CCNc1nc(C)c(-c2ccnc(Nc3cccc(S(=O)(=O)NCC)c3)n2)s1,0.32,–
CNc1nc(C)c(-c2ccnc(Nc3ccc(S(=O)(=O)NCCOC)cc3)n2)s1,0.003,–
CCNc1nc(C)c(-c2ccnc(Nc3cccc(CC(=O)OCCOC)c3)n2)s1,–,IC50 (CDK2 [2]): 3.2 µM
CNc1nc(C)c(-c2ccnc(Nc3ccc(C)c(S(=O)(=O)N4CCOCC4)c3)n2)s1,3.2,IC50 (MAPK14 (human)): > 10 µM
COCCNS(=O)(=O)c1cccc(Nc2nccc(-c3sc(N)nc3C)n2)c1,0.26,IC50 (MAPK14 (human)): > 10 µM
Cc1ccc(Nc2nccc(-c3sc(N)nc3C)n2)cc1S(=O)(=O)N1CCOCC1,–,IC50 (MAPK14 (human)): > 10 µM
CNc1nc(C)c(-c2ccnc(Nc3cccc(S(C)(=O)=O)c3)n2)s1,–,IC50 (CDK2 [2]): 0.006 µM; IC50 (MAPK14 (human)): > 10 µM
CCOC(=O)Cc1cccc(NS(=O)(=O)c2ccc(Nc3nccc(-c4sc(NC)nc4C)n3)cc2)c1,–,IC50 (CDK2 [2]): 3.2 µM
CCNc1nc(C)c(-c2ccnc(Nc3ccc(N4CCN(Cc5ccccc5)CC4)cc3)n2)s1,–,IC50 (CDK2 [2]): 3.2 µM
CCNc1nc(C)c(-c2ccnc(Nc3ccc(CNC(C)=O)cc3)n2)s1,–,IC50 (CDK2 [2]): 0.12 µM
CNc1nc(C)c(-c2ccnc(Nc3cccc(S(=O)(=O)NCCO)c3)n2)s1,0.32,–
CNc1nc(C)c(-c2ccnc(Nc3cc(OC)cc(OC)c3)n2)s1,0.32,–
Cc1nc(N)sc1-c1ccnc(Nc2cccc(S(=O)(=O)N3CCOCC3)c2)n1,3.2,–
COc1cc(Nc2nccc(-c3sc(CO)nc3C)n2)ccc1N1CCOCC1,2.51,–
Cc1nc(CS(=O)(=O)c2cccs2)sc1-c1ccnc(Nc2ccc(N3CCOCC3)cc2)n1,–,inhibition (CDK2 [2]): 91%; inhibition (MAPK14 (human)): 67%; inhibition (ROCK2 (rat)): 86%

Structure (SMILES),IC50 (CDK2 [1]) [µM],further results
Cc1nc(N)sc1-c1ccnc(Nc2ccc(S(=O)(=O)NCc3ccccc3)cc2)n1,0.012,–
CCNc1nc(C)c(-c2ccnc(Nc3ccc(S(=O)(=O)NCCOC)cc3)n2)s1,–,IC50 (CDK2 [2]): 0.012 µM
CCNc1nc(C)c(-c2ccnc(Nc3ccc(N4CCNCC4)cc3)n2)s1,0.251,IC50 (CDK2 [2]): 0.05 µM; inhibition (CDK2 [2]): 99%; inhibition (MAPK14 (human)): 61%; inhibition (ROCK2 (rat)): 95%
Cc1nc(NC(C)(C)C)sc1-c1ccnc(Nc2ccc(N3CCOCC3)cc2)n1,0.12,–
Cc1nc(N(C)c2cccnc2)sc1-c1ccnc(Nc2ccc(N3CCOCC3)cc2)n1,3.2,–
COCCOC(=O)COc1cccc(Nc2nccc(-c3sc(N)nc3C)n2)c1,1,–
CCNS(=O)(=O)c1ccc(Nc2nccc(-c3sc(C)nc3C)n2)cc1,0.06,–
CNc1nc(C)c(-c2ccnc(Nc3cccc(S(=O)(=O)NC(C)=O)c3)n2)s1,–,IC50 (CDK2 [2]): 3.2 µM
CNc1nc(C)c(-c2ccnc(Nc3cccc(S(=O)(=O)NC)c3)n2)s1,0.06,–
CCNc1nc(C)c(-c2ccnc(Nc3ccc(S(N)(=O)=O)cc3)n2)s1,–,IC50 (CDK2 [2]): 0.006 µM
CCNc1nc(C)c(-c2ccnc(Nc3ccc(S(=O)(=O)NCc4ccccc4)cc3)n2)s1,–,IC50 (CDK2 [2]): 3.2 µM
Cc1nc(N)sc1-c1ccnc(Nc2cccc(CNS(=O)(=O)C(F)(F)F)c2)n1,0.06,–
CNc1nc(C)c(-c2ccnc(Nc3ccc(OC)c(C)c3)n2)s1,0.12,–
Cc1nc(C)c(-c2ccnc(Nc3cccc(S(=O)(=O)NCCO)c3)n2)s1,0.32,–
Cc1nc(N)sc1-c1ccnc(Nc2cccc(S(=O)(=O)NCCO)c2)n1,0.12,–
CNc1nc(C)c(-c2ccnc(Nc3ccc(S(N)(=O)=O)cc3)n2)s1,–,IC50 (MAPK14 (human)): > 10 µM
CNc1nc(C)c(-c2ccnc(Nc3ccc(C)c(Br)c3)n2)s1,0.32,–
Cc1nc(C)c(-c2ccnc(Nc3cccc(S(C)(=O)=O)c3)n2)s1,0.32,–
